Earlier results in patent US6245768A, “1-(N'-(arylalkylaminoalkyl)) aminoisoindoles; a new class of dopamine receptor subtype specific ligands” (Neurogen Corporation, priority 1999, dated 2001).
Where two headings read alike, the source gives them in different places. Blank lines part the entries; values can stand above or below the compound they belong to.

Columns and labels:
[1] = tested on: D2 receptors; conditions: related art
[2] = tested on: D1 dopamine receptor; conditions: related art

Structure (SMILES): CN1CCN(C2=Nc3cc(Cl)ccc3Nc3ccccc32)CC1 [clozapine]
incidence of extrapyramidal side effects (EPS) (compared with classical neuroleptics, related art): lesser incidence of extrapyramidal side effects (EPS) than classical neuroleptics

Structure (SMILES): CCN1CCCC1CNC(=O)c1cc(S(N)(=O)=O)ccc1OC (stereo not shown) [sulpiride]
incidence of extrapyramidal side effects (EPS) (in vivo): lesser incidence of extrapyramidal side effects (EPS) than classical neuroleptics

binding affinity at D2 receptors [1]: subnanomolar range | binding at the D1 dopamine receptor [2]: binds relatively weakly
Structure (SMILES): O=C(CCCN1CCC(O)(c2ccc(Cl)cc2)CC1)c1ccc(F)cc1 [haloperidol]
